Results: BindingDB's records for doi:10.1016/s0960-894x(01)00687-4 (Merck Research Laboratories, 2001)

Assay: Inhibition of rate of ADP-stimulated gel-filtered human platelet aggregation mediated by integrin alphaIIb beta-3 in PLAGGIN assay

`C#C[C@H](CC(=O)O)NC(=O)CN1CC[C@H](CCc2ccc3c(n2)NCCC3)C1=O` [(S)-3-(2-{(S)-2-Oxo-3-[2-(5,6,7,8-tetrahydro-[1,8]naphthyridin-2-yl)-ethyl]-pyrrolidin-1-yl}-acetylamino)-pent-4-ynoic acid] and `O=C(O)C[C@H](NC(=O)CN1CC[C@H](CCc2ccc3c(n2)NCCC3)C1=O)c1cccnc1` [3-(2-{(S)-2-Oxo-3-[2-(5,6,7,8-tetrahydro-[1,8]naphthyridin-2-yl)-ethyl]-pyrrolidin-1-yl}-acetylamino)-3-(S)-pyridin-3-yl-propionic acid] cannot be ordered by IC50: > 10 µM for the first, > 10 µM for the second.

`C#C[C@H](CC(=O)O)NC(=O)CNC(=O)CCCc1ccc2c(n1)NCCC2` [(S)-3-[2-(4-5,6,7,8-Tetrahydro-[1,8]naphthyridin-2-yl-butyrylamino)-acetylamino]-pent-4-ynoic acid] and `O=C(O)CCNC(=O)CNC(=O)CCCc1ccc2c(n1)NCCC2` [3-[2-(4-5,6,7,8-Tetrahydro-[1,8]naphthyridin-2-yl-butyrylamino)-acetylamino]-propionic acid] cannot be ordered by IC50: > 10 µM for the first, > 10 µM for the second.

`O=C(O)C[C@H](NC(=O)CN1CCCC(CCc2ccc3c(n2)NCCC3)C1=O)c1cccnc1` (stereo partly drawn) [3-(2-{2-Oxo-3-[2-(5,6,7,8-tetrahydro-[1,8]naphthyridin-2-yl)-ethyl]-piperidin-1-yl}-acetylamino)-3-(S)-pyridin-3-yl-propionic acid] and `O=C(O)C[C@H](NC(=O)CN1CC[C@@H](CCc2ccc3c(n2)NCCC3)C1=O)c1cccnc1` [(S)-3-(2-{(R)-2-Oxo-3-[2-(5,6,7,8-tetrahydro-[1,8]naphthyridin-2-yl)-ethyl]-pyrrolidin-1-yl}-acetylamino)-3-pyridin-3-yl-propionic acid] cannot be ordered by IC50: > 10 µM for the first, > 10 µM for the second.

Compared with `O=C(O)C[C@H](NC(=O)CN1CCN(CCc2ccc3c(n2)NCCC3)C1=O)c1cccnc1` [(S)-3-(2-{2-Oxo-3-[2-(5,6,7,8-tetrahydro-[1,8]naphthyridin-2-yl)-ethyl]-imidazolidin-1-yl}-acetylamino)-3-pyridin-3-yl-propionic acid], `O=C(O)C[C@H](NC(=O)CNC(=O)CCCc1ccc2c(n1)NCCC2)c1cccnc1` [(S)-3-Pyridin-3-yl-3-[2-(4-5,6,7,8-tetrahydro-[1,8]naphthyridin-2-yl-butyrylamino)-acetylamino]-propionic acid] is higher in IC50: 7.1 µM for the first, > 10 µM for the second. The first is the more potent here.
